Literature values, collected in US20220226302A1, “ENHANCEMENT OF CAMP SIGNALING AS A COMBINATION DRUG STRATEGY FOR THE TREATMENT OF DEPRESSION AND RELATED CONDITIONS” (Altos Neuroscience, Inc., priority 2021, published 2022).

Legend:
PDE4 [1] = conditions: in vivo
[2] = in vivo
depression [3] = conditions: two acute treatment clinical trials, humans
PDE4 [4] = test system: PDE4
depression [5] = conditions: patients with depression, small clinical trials

Compound	antidepressant effect (PDE4 [1])	pro-cognitive effect (PDE4 [1])	brain penetration [2]	antidepressant-like effects in animals (β3 adrenergic receptor)	efficacy in clinical trials for depression (depression [3])	phenotype of treated mice (PDE4 [4])	improvement in depression versus TCA medications (depression [5])
O=C(Nc1c(Cl)cncc1Cl)c1ccc(OC(F)F)c(OCC2CC2)c1 [Roflumilast, roflumilast]	no evidence of an antidepressant effect	pro-cognitive effects	can also reach the brain				
CCOC(=O)COc1ccc2c(c1)C[C@@H](NC[C@H](O)c1cccc(Cl)c1)CC2 [amibegron]			brain penetrant	promising antidepressant-like effects in animals	failed to show efficacy in two acute treatment clinical trials		
COc1ccc(C2CNC(=O)C2)cc1OC1CCCC1 (centres unmarked) [rolipram]						antidepressant and pro-cognitive phenotypes	In none of these studies, however, did rolipram produce a greater improvement in depression than the TCA medications
